The values that follow come from paper PMC11173765 (Molecules, 2024).

In data set [1] the target is T1, S2R (Rattus norvegicus, UniProt Q5U3Y7).
T1 construct: liver homogenates (250 μg/sample) from male Sprague Dawley rats; from tissue; host or cells: liver homogenate of male Sprague Dawley rats
T1 sequence (Q5U3Y7 1-176): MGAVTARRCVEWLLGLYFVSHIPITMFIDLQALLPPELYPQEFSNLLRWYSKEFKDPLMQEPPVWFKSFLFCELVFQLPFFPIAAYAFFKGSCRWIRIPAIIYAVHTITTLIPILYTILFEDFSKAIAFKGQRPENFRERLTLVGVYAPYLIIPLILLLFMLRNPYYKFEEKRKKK
Nature of the data set: S2R radioligand binding assay ([3H]-DTG with (+)-pentazocine mask, rat liver homogenates). The note with it: for S1R/S2R: selectivity ratio Ki S1R / Ki S2R; for Ki: [3H]-DTG 2 nM, (+)-pentazocine 5 μM mask, rat liver homogenates, mean ± SEM. The procedure:
(§1) The S1R and S2R receptor affinities of the test compounds were evaluated in competition tests by radiometric assays.
(§2) Liver homogenates were prepared from Sprague Dawley rats (ENVIGO RMS S.R.L., Udine, Italy) for both S1R and S2R receptor binding assays. […] An Ultima Gold MV Scintillation cocktail was sourced from PerkinElmer (Milan, Italy). Other materials were obtained from Merck Life Science S.r.l. (Milan, Italy). For each compound, a10 mM DMSO stock solution was obtained. From these, diluted test concentrations ranging from 10^−5 M to 10^−11 M wereprepared using the respective assay buffer. Both assays involve the use of a tris buffer (50 mM, pH 8) and liver homogenates (250 μg/sample) from male Sprague Dawley rats. […] The final volume was 0.5 mL [54]. A millipore filter apparatus was employed to separate bound and free radioligands via filtration under conditions of reduced pressure through Whatman GF 6 glass fiber filters. Each filter paper was washed three times with 2 mL of ice-cold tris buffer (50 mM for S1R, 10 mM for S2R; pH 8.0), dried at room temperature, and incubated overnight with 2 mL of Ultima Gold MV Scintillation cocktail in pony vials. Bound radioactivity was determined using a liquid scintillation counter Beckman LS 6500 (Beckman Coulter Diagnostic, Brea, CA, USA. […]

Data set [2] deals with S1R. The note with it: read-out: Ki S1R; siramesine literature value; cited from earlier work.
Data set [3] has as its target T2, S1R (Rattus norvegicus, UniProt Q9R0C9).
T2 construct: liver homogenates (250 μg/sample) from male Sprague Dawley rats; from tissue; host or cells: liver homogenate of male Sprague Dawley rats
Nature of the data set: S1R radioligand binding assay ([3H]-pentazocine, rat liver homogenates). The note with it: for S2R/S1R: selectivity ratio Ki S2R / Ki S1R; for SR subtype preference: in words, from S1R and S2R binding affinities. The procedure:
as §1, §2

Data set [4] has as its target S2R. The note with it: read-out: Ki S2R; siramesine literature value; cited from earlier work.
In a further data set the test system is HUH-7. Nature of the data set: Cytotoxicity, resazurin viability assay in HUH-7 cells. The format is cell-based. The following applies: Homo sapiens, 48 hrs treatment, mean ± SEM. The procedure:
(§3) Cytotoxic potency was measured using a resazurin assay (see Supplementary Materials). Cells were treated with increasing concentrations of each compound for 48 hours before the cell viability was assessed (Supplementary Materials).
(§4) Dulbecco’s modified Eagle medium (DMEM; Gibco, Life Technologies, Grand Island, NY, USA), supplemented with 10% (v/v) of fetal bovine serum (FBS) and Antibiotic Antimycotic Solution (100 U penicillin, 100 μg/mL streptomycin and 0.25 μg/mL amphotericin B; Sigma-Aldrich, St. Louis, MO, USA), was used to culture the human cell lines SH-SY5Y [55] (neuroblastoma, ATCC, CRL-2266) and HUH-7 [56] (hepatocarcinoma, Japanese Cancer Research Resources Bank, National Institutes of Biomedical Innovation, Health and Nutrition, NIBIOHN, JCRB0403).
(§5) Cell viability was evaluated using resazurin (SERVA Electrophoresis GmbH, Heidelberg, Germany) as previously described.
(§6) Briefly, a resazurin stock solution (440 μM, 10× in phosphate-buffered saline) was diluted in a culture medium to prepare a 44 μM working solution. Cells (5 × 10^3) were seeded in 96-well plates, incubated with 100µl of resazurin working solution, and fluorescence was measured after 1, 2, and 3 hrs. The background fluorescence of killed cells was subtracted, and viability was calculated relative to control cells treated with DMSO solvent (1%). The fluorescence was measured using an Envision 2104 Multi-label Microplate Reader (Perkin Elmer, Boston, MA, USA) and by setting the excitation wavelength at λ = 530 nm and emission wavelength at λ = 590 nm. Measurements were performed at a time of 0 and after 1 hour of incubation. Cytotoxicity was calculated as 100% minus the percentage of viability.
(§7) Statistical analysis was carried out with GraphPad Prism® 6.0 software. An unpaired t-test was used to compare treated and control cells, with p < 0.05 considered statistically significant. The half-maximal inhibitory concentration (IC50) values for cytotoxicity were determined by analyzing dose-response curves using GraphPad Prism software.
A general note: Alamar Blue is a resazurin reagent that responds to reducing activity.

Another data set concerns SH-SY5Y. Nature of the data set: Cytotoxicity, resazurin viability assay in SH-SY5Y cells. The format is cell-based. The note with it: Homo sapiens, 48 hrs treatment, mean ± SEM. The procedure:
as §3, §4, §5, §6, §7

[5] abbreviates: [3H]-pentazocine 2 nM, rat liver homogenates, mean ± SEM, read-out: Ki S1R.

“And” between values parts separate entries of the source, which are not always exact repeats. Equal entries are not always repeated. Where two headings read alike, the source gives them in different places.

T2 sequence (Q9R0C9 whole entry): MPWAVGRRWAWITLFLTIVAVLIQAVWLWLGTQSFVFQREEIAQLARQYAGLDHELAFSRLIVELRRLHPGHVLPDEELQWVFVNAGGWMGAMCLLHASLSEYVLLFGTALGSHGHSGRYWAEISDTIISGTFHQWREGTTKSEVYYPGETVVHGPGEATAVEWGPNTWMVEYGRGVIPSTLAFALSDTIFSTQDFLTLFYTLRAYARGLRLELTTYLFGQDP

In general, Ki refers to a dissociation constant, usually derived from enzyme kinetics or from competition with a known ligand. What is called IC50 is the point on the concentration scale where inhibition reaches its midpoint. Low values mean inhibition by little substance, high ones a need for much substance. On to `Fc1ccc(-n2cc(CCCCN3CCC4(CC3)OCc3ccccc34)c3ccccc32)cc1` [SRM, siramesine, reference compound], for which the S1R/S2R at S2R [1] is recorded as 0.8. In addition, the Ki at S1R [2] was 10.5 ± 2.6 nM; on S2R [4], 12.6 ± 0.1 nM. Besides, the S2R/S1R on S1R [3] was 1.2. Also, the IC50 with HUH-7 was found to be 2 ± 0.25 µM; in the data set on SH-SY5Y, 5 ± 1 µM.
Broadly, the melting point is the temperature of the solid-liquid transition. On to `O=C(CCCN1CCC(c2ccncc2)CC1)c1ccc(F)cc1` [4i, 1-(4-Fluorophenyl)-4-(4-(pyridin-4-yl)piperidin-1-yl)butan-1-one], for which the melting point fell in the range of 102 to 104 °C. Also, the Ki at S2R [1] (read-out: Ki S2R) worked out at 28.3 ± 3.33 nM. Moreover, at S2R [1], the S1R/S2R turned out to be 0.5. The Ki on S1R [3] (setting [5]) is 13.9 ± 3.11 nM. On S1R [3], the SR subtype preference entry is recorded as “preference for the S1R subtype” and the S2R/S1R is 2.03.
For `O=C(CCCN1CCN(c2ccc(F)cc2)CC1)c1ccc(F)cc1` [4f, 1-(4-Fluorophenyl)-4-(4-(4-fluorophenyl)piperazin-1-yl)butan-1-one], the melting point lay in the range of 94 to 95 °C. For the same compound, on S2R [1] (read-out: Ki S2R), the Ki is 16.4 ± 3.17 nM. Also, the S1R/S2R at S2R [1] is 4.3. At S1R [3] (setting [5]), the Ki is 70.2 ± 23.2 nM. At S1R [3], the SR subtype preference result is listed as “preference for S2R” and the S2R/S1R was 0.23.
For the compound `O=C(CCCN1CCCN(Cc2ccccc2)CC1)c1ccc(F)cc1` [4a, 4-(4-Benzyl-1,4-diazepan-1-yl)-1-(4-fluorophenyl)butan-1-one], the Ki on S2R [1] (read-out: Ki S2R) came to 210 ± 21.4 nM. For the same compound, the Ki at S1R [3] (setting [5]) amounted to 21.6 ± 3.44 nM. For the same compound, at S1R [3], the SR subtype preference entry is on record as “preference for the S1R subtype” and the S2R/S1R is given as 10.
As for `Cc1ccc(CN(C)CCCC(=O)c2ccc(F)cc2)c(C)c1` [4h, 4-((2,4-Dimethylbenzyl)(methyl)amino)-1-(4-fluorophenyl)butan-1-one], the Ki at S2R [1] (read-out: Ki S2R) came out at 27.7 ± 3.03 nM. The S1R/S2R at S2R [1] is 2.1. The inhibition constant Ki on S1R [3] (setting [5]) amounted to 59.7 ± 7.6 nM. Moreover, on S1R [3], the SR subtype preference result is “preference for S2R” and the S2R/S1R was 0.46.
On to `COc1ccc(CN(C)CCCC(=O)c2ccc(F)cc2)cc1OC` [4c, 4-((3,4-Dimethoxybenzyl)(methyl)-amino)-1-(4-fluorophenyl)butan-1-one], for which the Ki at S2R [1] (read-out: Ki S2R) turned out to be 148 ± 10.3 nM. Moreover, the S1R/S2R on S2R [1] worked out at 2.0. Moreover, the Ki on S1R [3] (setting [5]) is 301 ± 74.7 nM. Further, at S1R [3], the SR subtype preference entry is reported as “preference for S2R” and the S2R/S1R was determined as 0.5.
Regarding `COc1ccc(CC2CCN(CCCC(=O)c3ccc(F)cc3)CC2)cc1OC` [4j, 4-(4-(3,4-Dimetoxybenzyl)piperidin-1-yl)-1-(4-fluorophenyl)butan-1-one], the Ki at S2R [1] (read-out: Ki S2R) was determined as 153 ± 30.3 nM; at S1R [3] (setting [5]), 6.1 ± 0.58 nM. On S2R [1], the S1R/S2R is listed as 0.04. Moreover, at S1R [3], the SR subtype preference entry is given as “preference for the S1R subtype”. Further, the S2R/S1R at S1R [3] is given as 25. Further, the IC50 with HUH-7 amounted to 37 ± 6 µM; in the data set on SH-SY5Y, 58 ± 7 µM.
Take `COc1cc2c(cc1OC)CN(CCCC(=O)c1ccc(F)cc1)CC2` [4e, 4-(6,7-Dimetoxy-3,4-dihydroisoquinolin-2(1H)-yl)-1-(4-fluorophenyl)butan-1-one]: the values for the Ki at S2R [1] (read-out: Ki S2R) and at S1R [3] (setting [5]) were 6.93 ± 0.76 nM and 1660 ± 118 nM, respectively. The S1R/S2R at S2R [1] came to 241. Further, at S1R [3], the SR subtype preference result is “preference for S2R”. For the same compound, the S2R/S1R at S1R [3] worked out at 0.004. Also, the IC50 in the data set with HUH-7 turned out to be 40 ± 5 µM; in the data set with SH-SY5Y, 120 ± 13 µM.
Regarding `O=C(CCCN1CCN(C2CCCCC2)CC1)c1ccc(F)cc1` [4d, 4-(4-Cyclohexylpiperazin-1-yl)-1-(4-fluorophenyl)butan-1-one], the melting point lay within 198 to 200 °C. On S2R [1] (read-out: Ki S2R), the Ki turned out to be 13.2 ± 2.78 nM. For the same compound, on S2R [1], the S1R/S2R is 1.4. Further, the Ki on S1R [3] (setting [5]) was found to be 18.8 ± 2.91 nM. Further, at S1R [3], the SR subtype preference entry is “dual SR affinity” and the S2R/S1R is reported as 0.7. Further, in the data set with HUH-7, the IC50 is 163 ± 18 µM.
In turn, `O=C(CCCN1CCC2(CC1)OCc1ccccc12)c1ccc(F)cc1` [4g, 1-(4-Fluorophenyl)-4-(3H-spiro[isobenzofuran-1,4′-piperidin]-1′-yl)butan-1-one] came in with a melting point of 88 to 90 °C. Besides, the Ki at S2R [1] (Ki S2R) is 9.2 nM and 9.23 nM. Also, at S2R [1], the S1R/S2R turned out to be 0.7. Further, on S1R [3], the affinity, expressed as Ki, was 6.3 ± 1.4 nM; the SR subtype preference entry is reported as “dual SR affinity”; the S2R/S1R turned out to be 1.46. For the same compound, in the data set on HUH-7, the midpoint of inhibition, the IC50, lay at 16 ± 2 µM. Further, in the data set with SH-SY5Y, the IC50 was 57 ± 6 µM.
The compound `O=C(CCCN1CCc2ccccc2C1)c1ccc(F)cc1` [4b, 4-(3,4-Dihydroisoquinolin-2(1H)-yl)-1-(4-fluorophenyl)butan-1-one] had a melting point of 45 to 47 °C. On S2R [1] (read-out: Ki S2R), the Ki was determined as 124 ± 16.3 nM. Further, on S2R [1], the S1R/S2R worked out at 0.35. Besides, at S1R [3] (setting [5]), the Ki came to 44.5 ± 7.39 nM. For the same compound, on S1R [3], the SR subtype preference entry is on record as “preference for the S1R subtype” and the S2R/S1R is 2.8.
